Data published in patent publication US20260102387A1, “IMMUNOSUPPRESSIVE COMPOUNDS” (UNIVERSITÄT BASEL, priority 2022, published 2026).
Read-outs that look alike come from different tables or passages of the source.

Legend:
[1] = tested on: BRD2, BRD3 and BRD4 proteins; conditions: reported TPP data; cited from earlier work
coronin 1 promoter [2] = test: EC50 analysis for coronin 1 promoter driven GFP inhibition by flow cytometry in RBL cells; type: cell-based; conditions: RBL, RBL cells, 48-65 h, flow cytometry
Description: RBL cells that had been incubated with the indicated calcium channel blockers (amlodipine (3.125 μM) and verapamil (8 μM) concentrations for 48 h were analyzed by flow cytometry for any alteration in coronin 1 promoter driven GFP fluorescence. The results reveal no effect of calcium channel blockers on coronin 1 promoter activity (FIG. 4).
(§1) RBL cells expressing GFP under coronin 1 promoter and optionally with RBL cells expressing RFP under CMV promoter were mixed in equal numbers and incubated with the compounds at indicated concentrations for 48-65 h and analyzed by flow cytometry for alteration in coronin 1 promoter (GFP fluorescence), CMV promoter (RFP fluorescence) values. In addition, the cells were labelled with live-dead marker for assessing cell viability status by flow cytometry. Cycloheximide (CHX) serves as positive control and DMSO serves as negative controls. Effective Concentration (EC50) values for coronin 1 promoter inhibition via GFP fluorescence analysis, non-specific promoter inhibition via CMV promoter driven-RFP fluorescence analysis and cell viability via live/dead staining as a measure for toxicity in flow cytometry for compounds (10-22 and 50a-65a) are shown in Table 6 and Table 7. Based on the EC50 analysis of the inhibition of coronin 1 promoter driven GFP fluorescence the (4S,7R)-configurated eutomers were identified (Structures FIG. 9A-C). This is exemplified for compounds containing two stereocenters by eutomers 11c and 13a. […] Subsequent EC50 evaluations (Table 7) were performed with compound 13a as standard for relative potency normalized to a value of 1.00 (relative potency calculated as [EC50 GFP inhibition 13a]/[EC50 GFP inhibition compound of interest]).

CMV promoter = test: EC50 analysis for CMV promoter driven RFP inhibition (non-specific activity) by flow cytometry in RBL cells; type: cell-based, cytomegalovirus; conditions: 48-65 h, read-out: EC50 RFP alteration
Description: as §1

RBL cells = test: Cell viability by live-dead staining (cytotoxicity), flow cytometry; type: cell-based, Rat; conditions: Rattus norvegicus, RBL, cell viability via live/dead staining, 48-65 h, read-out: EC50 Toxicity
Description: as §1

coronin 1 promoter [3] = test: Fluorescence-based screening assay: coronin 1 promoter driven GFP in RBL cells (microplate reader / microscopy); type: cell-based; conditions: RBL, 48 h, read-out: GFP values (%)
Description: The murine coronin 1 promoter sequences of SEQ ID NO: 1-6 were each cloned into a plasmid lacking a promoter (promoterless) but containing a destabilized Green Fluorescence Protein (GFP) cassette. Rat Basophil Leukemia (RBL) cells were transfected with the plasmids, stable GFP expressing cells were enriched, incubated with various compounds and assessed for coronin 1 promoter inhibition by assessing green fluorescence values (FIG. 2).
The plasmids were independently transfected into immune cells (Rat basophil Leukemia, RBL cells) to generate green and red fluorescent RBL cells that were subsequently enriched by means of flow cytometry. These cells were then mixed in equal ratio (1:1) and incubated in a 96 well plate at 100,000 cells/well in a volume of 200 μl of phenol red free RPMI supplemented with 8% fetal calf serum, L-glutamate and antibiotics (penicillin, […]) from available chemical libraries. At defined time points (8 h, 24 h and 48 h), the GFP and RFP fluorescence was measured using a 96 well microplate reader (Synergy, BioTek Instruments). […] Selected compounds show different levels of modulation of coronin 1 promoter driven GFP and CMV promoter driven RFP fluorescence. GFP and RFP fluorescence were analyzed with a microplate reader upon incubation with the top coronin 1 promoter inhibiting compounds. Shown are percentage of GFP reduction (left column) and percentage of RFP reduction (right column) for the compounds at 5 μg/ml concentration at 48 h. Cycloheximide (CHX) serves as positive control whereas media and DMSO serve as negative controls. […] Cells were imaged using a fluorescence microscope to validate fluorescence inhibition (FIG. 3A) and as well assess morphology and viability (in addition to GFP down regulation confirmation). In addition, quantitative Polymerase Chain Reaction (qPCR) for coronin 1 mRNA transcripts reveal reduction with compound 11 (FIG. 3B). The primers used for the qPCR on RBL cells are listed below as follows;

[4] = tested on: early cytomegalovirus promoter; test: Screening assay control: CMV promoter driven RFP in RBL cells (microplate reader); type: cell-based; conditions: 48 h
Description: As an unrelated promoter, the early cytomegaloviral promoter element was cloned into a promoterless Red Fluorescence Protein (RFP) expression plasmid. Rat Basophil Leukemia (RBL) cells were transfected with the plasmid, stable RFP expressing cells enriched, incubated with various compounds and were assessed for red fluorescence values. Analyzing the inhibition of an unrelated promoter (in this case, early cytomegalovirus promoter) that drove Red Fluorescence Protein (RFP) expression assessed non-specificity of the compound under analysis.
The plasmids were independently transfected into immune cells (Rat basophil Leukemia, RBL cells) to generate green and red fluorescent RBL cells that were subsequently enriched by means of flow cytometry. These cells were then mixed in equal ratio (1:1) and incubated in a 96 well plate at 100,000 cells/well in a volume of 200 μl of phenol red free RPMI supplemented with 8% fetal calf serum, L-glutamate and antibiotics (penicillin, streptomycin) and various compounds (3 and 5 μg/ml concentrations) from available chemical libraries. At defined time points (8 h, 24 h and 48 h), the GFP and RFP fluorescence was measured using a 96 well microplate reader (Synergy, BioTek Instruments). […] Selected compounds show different levels of modulation of coronin 1 promoter driven GFP and CMV promoter driven RFP fluorescence. GFP and RFP fluorescence were analyzed with a microplate reader upon incubation with the top coronin 1 promoter inhibiting compounds. Shown are percentage of GFP reduction (left column) and percentage of RFP reduction (right column) for the compounds at 5 μg/ml concentration at 48 h. Cycloheximide (CHX) serves as positive control whereas media and DMSO serve as negative controls. […] Cells were imaged using a fluorescence microscope to validate fluorescence inhibition (FIG. 3A) and as well assess morphology and viability (in addition to GFP down regulation confirmation). In addition, quantitative Polymerase Chain Reaction (qPCR) for coronin 1 mRNA transcripts reveal reduction with compound 11 (FIG. 3B). The primers used for the qPCR on RBL cells are listed below as follows;

[5] = 5 μg/ml, microplate reader, DMSO = 100
[6] = 5 μg/ml, microplate reader, DMSO = 100, read-out: RFP values (%)

For `COc1cc2c(cc1-c1c(C)noc1C)ncc1[nH]c(=O)n([C@H](C)c3ccccn3)c12` [IBET-151], the “thermal stabilization of BRD2, BRD3 and BRD4 proteins” value (shortened to “thermal stabilization of BRD2”) [1] is given as “thermal stabilization”.

In the case of `COc1ccccc1C1CC(=O)C2=C(C1)NC(C)=C(C(=O)OCC1CCOCC1)C2c1cccc(O)c1` (stereo not shown) [compound 18, (tetrahydro-2H-pyran-4-yl)methyl 4-(3-hydroxyphenyl)-7-(2-methoxyphenyl)-2-methyl-5-oxo-1,4,5,6,7,8-hexahydroquinoline-3-carboxylate], the EC50 (coronin 1 promoter [2]) is reported as 200 nM, the EC50 (CMV promoter) is reported as > 2500 nM and the EC50 (RBL cells) is reported as > 2500 nM.

In the case of `CC1=C(C(=O)OCC2CCCO2)C(c2cccc([N+](=O)[O-])c2)C2=C(CC(c3cccs3)CC2=O)N1` (stereo not shown) [Comp. 6, tetrahydro-2-furanylmethyl-2-methyl-4-(3-nitrophenyl)-5-oxo-7-(2-thienyl)-1,4,5,6,7,8-hexahydro-3-quinolinecarboxylate], the activity at 5 µg/mL (coronin 1 promoter [3]; [5]) is reported as 68% and the activity at 5 µg/mL [4, 6] is reported as 75%.

For `COc1ccccc1C1CC(=O)C2=C(C1)NC(C)=C(C(=O)OC1CCOCC1)C2c1cccc(O)c1` (stereo not shown) [compound 13, tetrahydro-2H-pyran-4-yl-4-(3-hydroxyphenyl)-7-(2-methoxyphenyl)-2-methyl-5-oxo-1,4,5,6,7,8-hexahydro-3-quinolinecarboxylate], the EC50 (coronin 1 promoter [2]) was 120 nM, the EC50 (CMV promoter) was > 2500 nM and the EC50 (RBL cells) was > 2500 nM.

`COC(=O)C1=C(C)NC2=C(C(=O)CC(c3ccc(Cl)cc3)C2)C1c1cccc(O)c1` (stereo not shown) [Comp. 22, methyl 7-(4-chlorophenyl)-4-(3-hydroxyphenyl)-2-methyl-5-oxo-1,4,5,6,7,8-hexahydroquinoline-3-carboxylate] gave an activity at 5 µg/mL (coronin 1 promoter [3]; [5]) of 55% and an activity at 5 µg/mL [4, 6] of 70%.

With `COC(=O)C1=C(C)NC2=C(C(=O)CC(c3ccccc3)C2)C1c1cccc(O)c1` (stereo not shown) [Comp. 4, methyl 4-(3-hydroxyphenyl)-2-methyl-5-oxo-7-phenyl-1,4,5,6,7,8-hexahydroquinoline-3-carboxylate] the activity at 5 µg/mL (coronin 1 promoter [3]; [5]) was 60% and the activity at 5 µg/mL [4, 6] was 85%.

`COc1ccccc1C1CC(=O)C2=C(C1)NC(C)=C(C(=O)OCC1CCCO1)C2c1cccs1` (stereo not shown) [Comp. 1, tetrahydro-2-furanylmethyl-7-(2-methoxyphenyl)-2-methyl-5-oxo-4-(2-thienyl)-1,4,5,6,7,8-hexahydro-3-quinolinecarboxylate] showed an activity at 5 µg/mL (coronin 1 promoter [3]; [5]) of 35% and an activity at 5 µg/mL [4, 6] of 66%.

With `C[C@@H]1C[C@@H]([C@H](O)CC2CC(=O)NC(=O)C2)C(=O)[C@@H](C)C1` [CHX, cycloheximide, reference compound] the activity at 5 µg/mL (coronin 1 promoter [3]) was 21% and the activity at 5 µg/mL ([4]; read-out: RFP values (%)) was 40%.

`COc1ccccc1C1CC(=O)C2=C(C1)NC(C)=C(C(=O)OCC1CCCO1)C2c1ccccc1F` (stereo not shown) [Comp. 10, tetrahydro-2-furanylmethyl-4-(2-fluorophenyl)-7-(2-methoxyphenyl)-2-methyl-5-oxo-1,4,5,6,7,8-hexahydro-3-quinolinecarboxylate] gave an activity at 5 µg/mL (coronin 1 promoter [3]; [5]) of 48%, an activity at 5 µg/mL [4, 6] of 110% and an EC50 (coronin 1 promoter [2]) of 800 nM. For the same compound, the EC50 (CMV promoter) was 1000 nM and the EC50 (RBL cells) was > 7500 nM.

In the case of `COc1ccccc1C1CC(=O)C2=C(C1)NC(C)=C(C(=O)OCC1CCCO1)C2c1cccc(O)c1` (stereo not shown) [Comp. 12, tetrahydro-2-furanylmethyl-4-(3-hydroxyphenyl)-7-(2-methoxyphenyl)-2-methyl-5-oxo-1,4,5,6,7,8-hexahydro-3-quinolinecarboxylate], the activity at 5 µg/mL (coronin 1 promoter [3]; [5]) is reported as 46%, the activity at 5 µg/mL [4, 6] is reported as 153% and the EC50 (coronin 1 promoter [2]) is reported as 340 nM. The EC50 (CMV promoter) was > 1000 nM and the EC50 (RBL cells) was > 3000 nM.

`COC(=O)C1=C(C)NC2=C(C(=O)CC(c3ccc(OC)cc3)C2)C1c1cccc(O)c1` (stereo not shown) [Comp. 8, methyl-4-(3-hydroxyphenyl)-7-(4-methoxyphenyl)-2-methyl-5-oxo-1,4,5,6,7,8-hexahydro-3-quinolinecarboxylate] gave an activity at 5 µg/mL (coronin 1 promoter [3]; [5]) of 87% and an activity at 5 µg/mL [4, 6] of 97%.

In the case of `COC(=O)C1=C(C)NC2=C(C(=O)CC(c3ccccc3OC)C2)C1c1ccc(F)cc1` (stereo not shown) [Comp. 2, methyl-4-(4-fluorophenyl)-7-(2-methoxyphenyl)-2-methyl-5-oxo-1,4,5,6,7,8-hexahydro-3-quinolinecarboxylate], the activity at 5 µg/mL (coronin 1 promoter [3]; [5]) is reported as 52% and the activity at 5 µg/mL [4, 6] is reported as 81%.

In the case of `Cc1sc2c(c1C)C(c1ccc(Cl)cc1)=N[C@@H](CC(=O)OC(C)(C)C)c1nnc(C)n1-2` [JQ1], the “thermal stabilization of BRD2” value [1] is given as “thermal stabilization”.

For `COc1cc(OC)c2c(=O)[nH]c(-c3cc(C)c(OCCO)c(C)c3)nc2c1` [RVX-208], the “thermal stabilization of BRD2” value [1] is given as “thermal stabilization”.

In the case of `CC(=O)Nc1c(F)cc(C(=O)N[C@H]2CC[C@H](O)CC2)cc1O[C@@H](C)c1ccccc1` [IBET-BD2], the “thermal stabilization of BRD2” value [1] is listed as “thermal stabilization”.
